# Assay results as given in US20150315211A1, “SMALL MOLECULES FOR THE MODULATION OF MCL-1 AND METHODS OF MODULATING CELL DEATH, CELL DIVISION, CELL DIFFERENTIATION AND METHODS OF TREATING DISORDERS” (priority 2010, published 2015).
# System: MCL-1ΔNΔC
# Test: High-throughput competitive FP binding screen, FITC-MCL-1 SAHB/MCL-1ΔNΔC interaction
# Conditions: selectivity for MCL-1ΔNΔC over BCL-XLΔC targeting (BCL-XL % Bound minus MCL-1 % Bound)
row,SMILES,Spec Values
1,O=c1[nH]cnc2ccc(Br)cc12,59.02
2,O=C1COc2ccc(-c3cs/c(=N\c4ccc(F)cc4)n3/N=C/c3ccc(O)c(O)c3)cc2N1,58.52
3,O=C1C2=C(C(=O)c3ccccc31)C(c1ccccc1O)c1sc(=O)[nH]c1S2 (stereo not drawn),58.45
4,CN1CCCN(Cc2cc(C(C)(C)C)c(O)c(C(C)(C)C)c2)CC1,58.29
5,c1coc(C2Nc3cccc4cccc(c34)N2)c1,57.32
6,c1cc(CNc2ccc(N3CCCC3)cc2)ccn1,56.89
7,COc1ccc(C2=CC(=O)C=CC2=O)cc1,56.64
8,Oc1ccc(NCc2ccc(Br)cc2)cc1,56.32
9,CCN(CC)S(=O)(=O)c1ccc(-c2ccc(/C=N/N=C3\NC(=O)C(CC(=O)Nc4ccccc4)S3)o2)cc1 (stereo not drawn),56.3
10,O=C1CSCC(=O)N1c1cc(C(F)(F)F)cc(C(F)(F)F)c1,56.05
11,O=C(CSc1ncc(C(F)(F)F)cc1Cl)NC(=O)CN1CCCC1=O,55.6
12,C/C(=N\OCc1ccc(C(=O)N2CCCCC2)o1)c1cccc(C(F)(F)F)c1,55.34
13,Cc1cccc(NC(=O)CSc2nncc(=O)[nH]2)c1,55
14,CC(C)CNC(=O)CCc1nc(-c2ccccc2)no1,54.73

# Next, values leading:
row,Spec Values,SMILES
1,45.42,Cc1conc1NC(c1cccs1)c1ccc2cccnc2c1O (stereo not drawn)
2,59.09,Cc1ccc2c(CC(=O)NCC(=O)OCc3ccccc3)coc2c1
3,59.04,Cc1ccc(C(c2c(O)ccc3ccccc23)N2CCOCC2)o1 (stereo not drawn)
4,58.85,Cc1ccc(/C=C2\C(=O)Nc3ccc(Br)cc32)o1
5,58.66,COc1cc(C2Nc3cccc4cccc(c34)N2)cc(I)c1O
6,58.58,Cc1ccccc1-c1nnc(SCC(=O)NC(=O)Nc2ccccc2F)n1C
7,57.74,O=C(CC1C(=O)c2ccccc2S1(=O)=O)NC1=NN(c2ccccc2)C(=O)C1 (stereo not drawn)
8,57.12,CC(C)Cn1c2ccc(Cl)cc2c2nc3ccccc3nc21
9,55.93,O=C1C=CC(=O)N1CCc1ccc(Cl)cc1
10,55.72,N#C/C(=C\C=C\c1ccco1)C(N)=S
11,55.69,O=C1C=CC(=O)C(Sc2nnnn2-c2ccccc2)=C1
12,55.6,Cc1ccc2n1CCn1cc(-c3ccc(Br)cc3)cc1-2
13,55.59,N#CC(C#N)=C(C#N)c1ccc(-c2ccccc2)[nH]1
14,55.41,c1ccc2c(c1)nc(Nc1ccc(N3CCCCC3)cc1)c1nncn12
15,55.24,CCOc1ccc2c(c1)C(C)=CC(C)(C)N2C(=O)CSc1nnc(C2CC2)n1C
16,55.23,CCc1ccc2c(c1)C1(NN=C(c3ccccc3)S1)C(=O)N2 (stereo not drawn)
17,54.85,Cc1ccc(C)n1Cc1ccc(C(=O)O)cc1

# Target: BCL-XLΔC (Homo sapiens, UniProt Q07817)
# Test: High-throughput competitive FP binding screen, FITC-BAD BH3/BCL-XLΔC interaction
# Conditions: FITC-BAD BH3/BCL-XLΔC interaction pair, competitive FP screen
# Chain of BCL-XLΔC (Q07817 1-212 limits assumed, stated change not applied): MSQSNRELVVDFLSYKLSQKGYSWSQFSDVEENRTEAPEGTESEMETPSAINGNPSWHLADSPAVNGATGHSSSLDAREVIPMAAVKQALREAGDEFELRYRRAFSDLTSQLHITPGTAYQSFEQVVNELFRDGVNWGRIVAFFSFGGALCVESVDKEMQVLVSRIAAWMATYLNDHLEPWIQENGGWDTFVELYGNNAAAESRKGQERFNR
row,SMILES,BCL-XL % Bound [%]
1,O=c1[nH]cnc2ccc(Br)cc12,93.69
2,O=C1COc2ccc(-c3cs/c(=N\c4ccc(F)cc4)n3/N=C/c3ccc(O)c(O)c3)cc2N1,97.64
3,O=C1C2=C(C(=O)c3ccccc31)C(c1ccccc1O)c1sc(=O)[nH]c1S2 (stereo not drawn),88.86
4,CN1CCCN(Cc2cc(C(C)(C)C)c(O)c(C(C)(C)C)c2)CC1,83.5
5,c1coc(C2Nc3cccc4cccc(c34)N2)c1,106.3
6,c1cc(CNc2ccc(N3CCCC3)cc2)ccn1,95.63
7,COc1ccc(C2=CC(=O)C=CC2=O)cc1,92.03
8,Oc1ccc(NCc2ccc(Br)cc2)cc1,90.95
9,CCN(CC)S(=O)(=O)c1ccc(-c2ccc(/C=N/N=C3\NC(=O)C(CC(=O)Nc4ccccc4)S3)o2)cc1 (stereo not drawn),100.7
10,O=C1CSCC(=O)N1c1cc(C(F)(F)F)cc(C(F)(F)F)c1,101.7
11,O=C(CSc1ncc(C(F)(F)F)cc1Cl)NC(=O)CN1CCCC1=O,98.97
12,C/C(=N\OCc1ccc(C(=O)N2CCCCC2)o1)c1cccc(C(F)(F)F)c1,110.8
13,Cc1cccc(NC(=O)CSc2nncc(=O)[nH]2)c1,82.27
14,CC(C)CNC(=O)CCc1nc(-c2ccccc2)no1,92.21

# Further lines, results first:
row,BCL-XL % Bound [%],SMILES
1,103.8,Cc1conc1NC(c1cccs1)c1ccc2cccnc2c1O (stereo not drawn)
2,95.64,Cc1ccc2c(CC(=O)NCC(=O)OCc3ccccc3)coc2c1
3,100.8,Cc1ccc(C(c2c(O)ccc3ccccc23)N2CCOCC2)o1 (stereo not drawn)
4,77.59,Cc1ccc(/C=C2\C(=O)Nc3ccc(Br)cc32)o1
5,81.48,COc1cc(C2Nc3cccc4cccc(c34)N2)cc(I)c1O
6,98.1,Cc1ccccc1-c1nnc(SCC(=O)NC(=O)Nc2ccccc2F)n1C
7,65.35,O=C(CC1C(=O)c2ccccc2S1(=O)=O)NC1=NN(c2ccccc2)C(=O)C1 (stereo not drawn)
8,89.44,CC(C)Cn1c2ccc(Cl)cc2c2nc3ccccc3nc21
9,97.07,O=C1C=CC(=O)N1CCc1ccc(Cl)cc1
10,63.54,N#C/C(=C\C=C\c1ccco1)C(N)=S
11,101.3,O=C1C=CC(=O)C(Sc2nnnn2-c2ccccc2)=C1
12,99.37,Cc1ccc2n1CCn1cc(-c3ccc(Br)cc3)cc1-2
13,90.7,N#CC(C#N)=C(C#N)c1ccc(-c2ccccc2)[nH]1
14,90.45,c1ccc2c(c1)nc(Nc1ccc(N3CCCCC3)cc1)c1nncn12
15,95.37,CCOc1ccc2c(c1)C(C)=CC(C)(C)N2C(=O)CSc1nnc(C2CC2)n1C
16,99.43,CCc1ccc2c(c1)C1(NN=C(c3ccccc3)S1)C(=O)N2 (stereo not drawn)
17,91.45,Cc1ccc(C)n1Cc1ccc(C(=O)O)cc1

# Target: MCL-1ΔNΔC (Homo sapiens, UniProt Q07820)
# Test: High-throughput competitive FP binding screen, FITC-MCL-1 SAHB/MCL-1ΔNΔC interaction
# Design: the C-terminal alpha-helix was deleted from each of these constructs; GST (N, cleaved yes); made in house
# Conditions: FITC-MCL-1 SAHB/MCL-1ΔNΔC interaction pair, competitive FP screen
# Chain of MCL-1ΔNΔC (Homo sapiens, UniProt Q07820) (Q07820 172-320 limits assumed, stated change not applied): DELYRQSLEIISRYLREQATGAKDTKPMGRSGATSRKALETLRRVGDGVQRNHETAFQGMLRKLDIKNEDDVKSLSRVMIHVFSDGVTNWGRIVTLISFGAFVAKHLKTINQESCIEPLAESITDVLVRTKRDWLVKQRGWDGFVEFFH
row,SMILES,MCL-1% Bound [%]
1,O=c1[nH]cnc2ccc(Br)cc12,34.67
2,O=C1COc2ccc(-c3cs/c(=N\c4ccc(F)cc4)n3/N=C/c3ccc(O)c(O)c3)cc2N1,39.12
3,O=C1C2=C(C(=O)c3ccccc31)C(c1ccccc1O)c1sc(=O)[nH]c1S2 (stereo not drawn),30.41
4,CN1CCCN(Cc2cc(C(C)(C)C)c(O)c(C(C)(C)C)c2)CC1,25.21
5,c1coc(C2Nc3cccc4cccc(c34)N2)c1,48.94
6,c1cc(CNc2ccc(N3CCCC3)cc2)ccn1,38.73
7,COc1ccc(C2=CC(=O)C=CC2=O)cc1,35.4
8,Oc1ccc(NCc2ccc(Br)cc2)cc1,34.63
9,CCN(CC)S(=O)(=O)c1ccc(-c2ccc(/C=N/N=C3\NC(=O)C(CC(=O)Nc4ccccc4)S3)o2)cc1 (stereo not drawn),44.37
10,O=C1CSCC(=O)N1c1cc(C(F)(F)F)cc(C(F)(F)F)c1,45.62
11,O=C(CSc1ncc(C(F)(F)F)cc1Cl)NC(=O)CN1CCCC1=O,43.37
12,C/C(=N\OCc1ccc(C(=O)N2CCCCC2)o1)c1cccc(C(F)(F)F)c1,55.48
13,Cc1cccc(NC(=O)CSc2nncc(=O)[nH]2)c1,27.28
14,CC(C)CNC(=O)CCc1nc(-c2ccccc2)no1,37.48

# Results, then the molecule that gave them:
row,MCL-1% Bound [%],SMILES
1,58.33,Cc1conc1NC(c1cccs1)c1ccc2cccnc2c1O (stereo not drawn)
2,36.55,Cc1ccc2c(CC(=O)NCC(=O)OCc3ccccc3)coc2c1
3,41.79,Cc1ccc(C(c2c(O)ccc3ccccc23)N2CCOCC2)o1 (stereo not drawn)
4,18.74,Cc1ccc(/C=C2\C(=O)Nc3ccc(Br)cc32)o1
5,22.81,COc1cc(C2Nc3cccc4cccc(c34)N2)cc(I)c1O
6,39.52,Cc1ccccc1-c1nnc(SCC(=O)NC(=O)Nc2ccccc2F)n1C
7,7.61,O=C(CC1C(=O)c2ccccc2S1(=O)=O)NC1=NN(c2ccccc2)C(=O)C1 (stereo not drawn)
8,32.32,CC(C)Cn1c2ccc(Cl)cc2c2nc3ccccc3nc21
9,41.14,O=C1C=CC(=O)N1CCc1ccc(Cl)cc1
10,7.822,N#C/C(=C\C=C\c1ccco1)C(N)=S
11,45.56,O=C1C=CC(=O)C(Sc2nnnn2-c2ccccc2)=C1
12,43.77,Cc1ccc2n1CCn1cc(-c3ccc(Br)cc3)cc1-2
13,35.11,N#CC(C#N)=C(C#N)c1ccc(-c2ccccc2)[nH]1
14,35.03,c1ccc2c(c1)nc(Nc1ccc(N3CCCCC3)cc1)c1nncn12
15,40.13,CCOc1ccc2c(c1)C(C)=CC(C)(C)N2C(=O)CSc1nnc(C2CC2)n1C
16,44.19,CCc1ccc2c(c1)C1(NN=C(c3ccccc3)S1)C(=O)N2 (stereo not drawn)
17,36.6,Cc1ccc(C)n1Cc1ccc(C(=O)O)cc1
